# Results taken from publication PMC6522510 (Nature Communications, 2019).
# Like-named read-outs stand apart in the source and are kept apart here. Numbered stars: 1 amine (or outer) side, 2 acyl side, 3 side chain; on linkers, the order of the positions; unused ones are H or OH. Bridge positions count the residues as written; N and C are the ends. Square brackets hold non-standard residues; d marks the D form. Peptide text beside a SMILES is read from it. I, II: the chains in the order shown. Actinocin(9to1) = Cc1c2oc3c(C)ccc(C(=O)[*:1])c3nc-2c(C(=O)[*:2])c(N)c1=O; NMeV = CN[C@H](C(=O)O)C(C)C; Sar = CNCC(=O)O
# Assays:
# Test in all cases: Secondary dose-response HTS, Cell Titer Glo; call rule not given here
# Format in all cases: cell-based, human
# [1] = test system: MOLM-13; details: MOLM-13
# [2] = test system: CMK; details: CMK
# [3] = test system: CMS; details: for EC50: Homo sapiens
# [4] = test system: U937
# [5] = test system: ML2; details: ML-2; for EC50: Homo sapiens
# [6] = test system: CHRF288-11; details: for EC50: Homo sapiens, HTS
# [7] = test system: MV4-11; details: MV4-11; for EC50: Homo sapiens
# [8] = test system: M07e; details: for EC50: Homo sapiens, M-07e
# [9] = secondary high-throughput screen
# [10] = secondary high-throughput screen, CMS
# [11] = secondary high-throughput screen, U937
# [12] = secondary high-throughput screen, CHRF288-11
# [13] = secondary high-throughput screen, M07e
# [14] = Homo sapiens, secondary high-throughput screen, read-out: average effective concentration, MOLM-13
# [15] = Homo sapiens, secondary high-throughput screen, read-out: average effective concentration, CMK
# [16] = HTS, secondary high-throughput screen, CMS, read-out: average effective concentration, CMS
# [17] = Homo sapiens, U-937, secondary high-throughput screen, U937, read-out: average effective concentration, U937
# [18] = secondary high-throughput screen, read-out: average effective concentration, ML-2
# [19] = secondary high-throughput screen, CHRF288-11, read-out: average effective concentration, CHRF288-11
# [20] = secondary high-throughput screen, read-out: average effective concentration, MV4-11
# [21] = secondary high-throughput screen, M07e, read-out: average effective concentration, M07e
# [22] = Homo sapiens, read-out: average effective concentration, CMK
# [23] = HTS, read-out: average effective concentration, CMS
Compound,"average effective concentration, MOLM-13 [1, 9]","average effective concentration, CMK [2, 9]","average effective concentration, CMS [3, 10]","average effective concentration, U937 [4, 11]","average effective concentration, ML-2 [5, 9]","average effective concentration, CHRF288-11 [6, 12]","average effective concentration, MV4-11 [7, 9]","average effective concentration, M07e [8, 13]","EC50 [1, 14] [µM]","EC50 [4, 17] [µM]","EC50 [5, 18] [µM]","EC50 [6, 19] [µM]","EC50 [7, 20] [µM]","EC50 [8, 21] [µM]",also measured
"O=C(O)c1ccnc(C(=O)O)c1 [2,4-PDAC]",Inactive,Inactive,Inactive,Inactive,Inactive,Inactive,Inactive,Inactive,,,,,,,
CN(C)C/C=C/C(=O)Nc1cc2c(Nc3ccc(F)c(Cl)c3)ncnc2cc1O[C@H]1CCOC1 [AFATINIB],,,,,,,,,5.6,6.2,7,6.9,5.4,> 10,"EC50 [2, 15]: 3.6 µM; EC50 [3, 16]: 8.6 µM"
COCCCn1c(N)c(C(=O)NC2CCCC2)c2nc3ccccc3nc21 [CAY10591],Inactive,Inactive,Inactive,Inactive,Inactive,Inactive,Inactive,Inactive,,,,,,,
O=C(NC(NC(=S)Nc1ccc(F)c([N+](=O)[O-])c1)C(Cl)(Cl)Cl)C(c1ccccc1)c1ccccc1 (centres unmarked) [CGK 733],Inactive,Inactive,Inactive,Inactive,Inactive,Inactive,Inactive,Inactive,,,,,,,
Cc1cc(C2CCCCC2)n(O)c(=O)c1 [CICLOPIROX],,,,,,,,,3.4,7.5,2.4,7.9,5.2,7.7,"EC50 [2, 15]: 4.7 µM; EC50 [3, 16]: 3.9 µM"
CC1(COc2ccc3c(c2)ncn3-c2ccc3cccc(N4CCC(N)CC4)c3n2)COC1 [CRENOLANIB],,,,,,,,,0.1,5,3.6,0.77,0.072,> 10,"EC50 [2, 22]: 6.6 µM; EC50 [3, 23]: 8.2 µM"
C[C@@H](Oc1cc(-c2cnn(C3CCNCC3)c2)cnc1N)c1c(Cl)ccc(F)c1Cl [CRIZOTINIB],,,,,,,,,3.9,> 10,4.8,7.8,3.9,> 10,"EC50 [2, 15]: 4.2 µM; EC50 [3, 16]: 8.3 µM"
CCCCCCCCCCCCCCCc1cccc(OCC)c1C(=O)Nc1ccc(Cl)c(C(F)(F)F)c1 [CTPB],,Inactive,Inactive,Inactive,Inactive,Inactive,Inactive,Inactive,,,,,,,"EC50 ([1]; secondary high-throughput screen, read-out: average effective concentration, MOLM-13): 0.9 µM"
N#CC(=C(/N)Sc1ccccc1N)/C(C#N)=C(/N)Sc1ccccc1N [Compound U0126],Inactive,Inactive,Inactive,Inactive,Inactive,Inactive,Inactive,Inactive,,,,,,,
C[C@H]1[C@@H](O)O[C@@H]2O[C@@]3(C)CC[C@H]4[C@H](C)CC[C@@H]1[C@@]24OO3 [DIHYDROARTEMISININ],,,,,,,,,8.3,2.3,9,9.5,2.8,> 10,"EC50 [2, 22]: > 10 µM; EC50 [3, 23]: > 10 µM"
"Cc1c2oc3c(C)ccc(C(=O)N[C@@H]4C(=O)N[C@H](C(C)C)C(=O)N5CCC[C@H]5C(=O)N(C)CC(=O)N(C)[C@@H](C(C)C)C(=O)O[C@@H]4C)c3nc-2c(C(=O)N[C@@H]2C(=O)N[C@H](C(C)C)C(=O)N3CCC[C@H]3C(=O)N(C)CC(=O)N(C)[C@@H](C(C)C)C(=O)O[C@@H]2C)c(N)c1=O [Dactinomycin, reference compound] (I: T[dV]P[Sar][NMeV] / II: T[dV]P[Sar][NMeV]; ester I:1-I:C, II:1-II:C; linker I:N-II:N via Actinocin(9to1))",,,,,,,,,0.029,,,,0.043,,"EC50 ([1]; Homo sapiens, secondary HTS, 72 h, average of triplicate, read-out: EC50 MOLM-13): 0.03 µM; EC50 ([2]; Homo sapiens, secondary HTS, 72 h, average of triplicate, read-out: EC50 CMK): 0.001 µM; EC50 [3, 16]: 0.036 µM; EC50 ([3]; secondary HTS, 72 h, average of triplicate, read-out: EC50 CMS): 0.04 µM; EC50 ([4]; Homo sapiens, U-937, secondary HTS, 72 h, average of triplicate, read-out: EC50 U937): 0.001 µM; EC50 ([5]; secondary HTS, 72 h, average of triplicate, read-out: EC50 ML2): 0.001 µM; EC50 ([6]; 72 h, secondary HTS, 72 h, average of triplicate, read-out: EC50 CHRF288-11): 0.001 µM; EC50 ([7]; secondary HTS, 72 h, average of triplicate, read-out: EC50 MV4-11): 0.04 µM; EC50 ([8]; secondary HTS, 72 h, average of triplicate, read-out: EC50 M07e): 0.001 µM"
C#Cc1cccc(Nc2ncnc3cc(OCCOC)c(OCCOC)cc23)c1 [ERLOTINIB],,Inactive,Inactive,Inactive,Inactive,Inactive,,Inactive,> 10,,,,> 10,,
Cc1cnc(Nc2ccc(OCCN3CCCC3)cc2)nc1Nc1cccc(S(=O)(=O)NC(C)(C)C)c1 [FEDRATINIB],,,,,,,,,0.051,2.9,2.9,0.76,0.082,2,"EC50 [2, 22]: 0.24 µM; EC50 [3, 23]: 0.7 µM"
Cc1ccc(C(=O)COC(=O)c2cccc(NC(=O)c3ccc([N+](=O)[O-])cc3[N+](=O)[O-])c2)cc1 [FM19G11],Inactive,Inactive,Inactive,Inactive,Inactive,Inactive,Inactive,Inactive,,,,,,,
Nc1[nH]nc2nnc(-c3c(-c4ccccc4)nn4ccccc34)cc12 [FR 180204],Inactive,Inactive,Inactive,Inactive,Inactive,Inactive,Inactive,Inactive,,,,,,,
CSCC[C@H](NC(=O)[C@H](Cc1ccccc1)NC[C@@H](NC[C@@H](N)CS)C(C)C)C(=O)O [FTASE INHIBITOR I],Inactive,Inactive,Inactive,Inactive,Inactive,Inactive,Inactive,,,,,,,,"average effective concentration, M07e ([8]; secondary high-throughput screen, […]): Inactive"
COC(=O)[C@H](CCSC)NC(=O)c1ccc(NC[C@@H](N)CS)cc1-c1ccccc1 [FTI-277],Inactive,Inactive,Inactive,Inactive,Inactive,Inactive,Inactive,Inactive,,,,,,,
N[C@H](CCC(=O)N[C@@H](Cc1c[nH]c2ccccc12)C(=O)O)C(=O)O [GOLOTIMOD],Inactive,Inactive,Inactive,Inactive,Inactive,Inactive,Inactive,Inactive,,,,,,,
CNC(=O)c1c(F)cccc1Nc1nc(Nc2cc3c(cc2OC)CCN3C(=O)CN(C)C)nc2[nH]ccc12 [GSK1838705A],Inactive,,Inactive,,Inactive,Inactive,Inactive,Inactive,,,,,,,"EC50 ([2]; secondary high-throughput screen, read-out: average effective concentration, CMK): 5.8 µM; EC50 ([4]; secondary high-throughput screen, U937, read-out: average effective concentration, U937): 6.2 µM"
